Experimental findings from ChEMBL document CHEMBL3046569 (Med Chem Res, 2011) are described below.

A short description of series [1]: Therapeutic index, ratio of IC50 for human H9 cells to EC50 for HIV1. The class given is cell-based. The following applies: h9.
For series [2], the system named is Human immunodeficiency virus 1. As to the kind of experiment: Antiviral activity against Human immunodeficiency virus 1 infected human H9 cells assessed as inhibition of viral replication. The conditions noted are these: Human immunodeficiency virus 1, H9; read-out: pEC50 (converted). It is filed as functional, organism-based.

In the case of `C=C(C)[C@@H]1CC[C@]2(COC(=O)CC(C)(C)CC(=O)O)CC[C@]3(C)[C@H](CC[C@@H]4[C@@]5(C)CC[C@H](OC(=O)CC(C)(C)CC(=O)O)C(C)(C)[C@@H]5CC[C@]43C)[C@@H]12`, in series [1], the pTI was -4.333. Further, in series [2], the EC50 is 0.659 nM.
On the same counts, the results for `C=C(C)[C@@H]1CC[C@]2(COC(=O)CC(C)(C)CC(=O)O)CC[C@]3(C)[C@H](CC[C@@H]4[C@@]5(C)CCC(=O)C(C)(C)[C@@H]5CC[C@]43C)[C@@H]12` are -0.462 and 10000 nM.
On the same counts, the results for `C=C(C)[C@@H]1CC[C@]2(COC(=O)CC(C)CC(=O)O)CC[C@]3(C)[C@H](CC[C@@H]4[C@@]5(C)CC[C@H](OC(=O)CC(C)CC(=O)O)C(C)(C)[C@@H]5CC[C@]43C)[C@@H]12` (stereo partly specified) are -3.725 and 3.9 nM.
On to `C=C(C)[C@@H]1CC[C@]2(C(=O)NCCCCCCCC(=O)N[C@@H](CC(C)C)[C@@H](O)CC(=O)O)CC[C@]3(C)[C@H](CC[C@@H]4[C@@]5(C)CC[C@H](O)C(C)(C)[C@@H]5CC[C@]43C)[C@@H]12`, for which, in series [1], the pTI is given as -1.544. Besides, in series [2], the EC50 is 330 nM.
As for `CC(C)[C@@H]1CC[C@]2(C(=O)O)CC[C@]3(C)[C@H](CC[C@@H]4[C@@]5(C)CC[C@H](OC(=O)C67CCC(C)(C(=O)O6)C7(C)C)C(C)(C)[C@@H]5CC[C@]43C)[C@@H]12` (stereo partly specified), in series [1], the pTI is given as -0.301. The EC50 in series [2] was 500 nM.
On the same counts, the results for `C=C(C)[C@@H]1CC[C@]2(COC(=O)CC3(CC(=O)O)CCCC3)CC[C@]3(C)[C@H](CC[C@@H]4[C@@]5(C)CCC(=O)C(C)(C)[C@@H]5CC[C@]43C)[C@@H]12` are -0.477 and 4300 nM.
Turning to `C=C(C)[C@@H]1CC[C@]2(COC(=O)CCC(=O)O)CC[C@]3(C)[C@H](CC[C@@H]4[C@@]5(C)CC[C@H](OC(=O)CCC(=O)O)C(C)(C)[C@@H]5CC[C@]43C)[C@@H]12`, in series [1], the pTI is on record as -0.969. Moreover, in series [2], the EC50 is 3800 nM.
Regarding `CC(C)[C@@H]1CC[C@]2(C(=O)OCc3ccccc3)CC[C@]3(C)[C@H](CC[C@@H]4[C@@]5(C)CC[C@H](O)C(C)(C)[C@@H]5CC[C@]43C)[C@@H]12`, the pTI in series [1] was -0.255. The EC50 in series [2] was 100000 nM.
On the same counts, the results for `CC(C)[C@@H]1CC[C@]2(C(=O)OC(=O)OCN(C)C)CC[C@]3(C)[C@H](CC[C@@H]4[C@@]5(C)CC[C@H](O)C(C)(C)[C@@H]5CC[C@]43C)[C@@H]12` are 0 and 6590 nM.
Regarding `C=C(CO)[C@@H]1CC[C@]2(CO)CC[C@]3(C)[C@H](CC[C@@H]4[C@@]5(C)CC[C@H](O)C(C)(C)[C@@H]5CC[C@]43C)[C@@H]12` [30-HYDROXY-BETULIN], in series [1], the pTI is -0.447. Also, the EC50 in series [2] is 50800 nM.
On the same counts, the results for `C=C(C)[C@@H]1CC[C@]2(COC(=O)CC3(CC(=O)O)CCCC3)CC[C@]3(C)[C@H](CC[C@@H]4[C@@]5(C)CC[C@H](OC(=O)CC6(CC(=O)O)CCCC6)C(C)(C)[C@@H]5CC[C@]43C)[C@@H]12` are -2.427 and 76.9 nM.
Turning to `CC(CC(=O)O)CC(=O)OC[C@]12CC[C@@H](C(C)C)[C@@H]1[C@H]1CC[C@@H]3[C@@]4(C)CC[C@H](OC(=O)CC(C)CC(=O)O)C(C)(C)[C@@H]4CC[C@@]3(C)[C@]1(C)CC2` (stereo partly specified), the pTI in series [1] is listed as -2.512. In addition, the EC50 in series [2] was 59 nM.
For `CCC(C)(CC(=O)O)CC(=O)OC[C@]12CC[C@@H](C(C)C)[C@@H]1[C@H]1CC[C@@H]3[C@@]4(C)CC[C@H](OC(=O)CC(C)(CC)CC(=O)O)C(C)(C)[C@@H]4CC[C@@]3(C)[C@]1(C)CC2` (stereo partly specified), in series [1], the pTI was -2.395. Moreover, the EC50 in series [2] is 75 nM.
